Source: patent US12606533B2, “3-phenylpropylamine derivative” (DAIICHI SANKYO COMPANY, LIMITED, priority 2023, dated 2026)

How the values were obtained:
[1] = molecular target: T1, SF-1 (Homo sapiens, UniProt Q13285); assay: SF1 degradation induction in NCI-H295R SF-1-HiBiT cells (HiBiT DC50); assay type: cell-based; settings: 24 hr, concentration that induces 50% degradation of SF-1
T1 construct: NCI-H295R SF-1-HiBiT cells with HiBiT tag knocked in at the endogenous SF1 locus; host or cells: NCI-H295R SF-1-HiBiT (knock-in at endogenous locus)
How it was run: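 NCI-H295R cells carrying HiBiT-tagged SF-1, plated and grown 24 hr, then exposed to serially diluted compounds for 24 hr at 37° C. Remaining SF-1 read by lytic HiBiT luminescence; degradation rate from treated vs compound-free signal, DC50 as concentration giving 50% degradation.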

[2] = tested on: NCI-H295R cells; assay: Proliferation inhibitory action on NCI-H295R (CellTiter-Glo, 7 days); assay type: cell-based, human; settings: Homo sapiens, NCI-H295R, 168 h
How it was run: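 Compounds serially diluted in DMSO; cells seeded at 2×10^3 cells/well and cultured 7 days at 37° C, 5% CO2. CellTiter-Glo 2.0 luminescence read at day 0 and day 7; proliferation rate derived from compound-addition-day signal, untreated day-7 signal and treated day-7 signal.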

Row | Compound | DC50 [1] [µM] | GI50 [2] [µM]
1 | COc1ccc([C@]2(CCN(Cc3ccc(C4=CC[C@H](C(=O)N5CCN(Cc6ccc7c8c6CN(C)CCn8c(=O)n7C6CCC(=O)NC6=O)CC5)CC4)c(F)c3)CC(C)(C)C(F)(F)F)CCOC(C)(C)C2)cc1 (stereo partly drawn) [CB10, 3-{8-[(4-{[(4R)-2′-Fluoro-4′-{[{2-[(4R)-4-(4-methoxyphenyl)-2,2-dimethyltetrahydro-2H-pyran-4-yl]ethyl}(3,3,3-trifluoro-2,2-dimethylpropyl)amino]methyl}-2,3,4,5-tetrahydro[biphenyl]-4-yl]carbonyl}piperazin-1-yl)methyl]-6-methyl-2-oxo-4,5,6,7-tetrahydroimidazo[4,5,1-jk][1,4]benzodiazepin-1(2H)-yl}piperidine-2,6-dione] | 0.013 | 0.085
2 | COc1ccc([C@]2(CCN(Cc3ccc(C4=CC[C@H](C(=O)N5C6COCC5CC(Nc5ccc7c8c5CCCn8c(=O)n7C5CCC(=O)NC5=O)C6)CC4)c(F)c3)CC(C)(C)C(F)(F)F)CCOC(C)(C)C2)cc1 (stereo partly drawn) [CC3, 3-[7-{[(7-Exo)-9-{[(4R)-2′-fluoro-4′-{[{2-[(4R)-4-(4-methoxyphenyl)-2,2-dimethyltetrahydro-2H-pyran-4-yl]ethyl)(3,3,3-trifluoro-2,2-dimethylpropyl)amino]methyl}-2,3,4,5-tetrahydro[biphenyl]-4-yl]carbonyl}-3-oxa-9-azabicyclo[3.3.1]nonan-7-yl]amino}-2-oxo-5,6-dihydro-4H-imidazo[4,5,1-ij]quinolin-1(2H)-yl]piperidine-2,6-dione] | 0.0049 | 0.036
3 | COc1ccc([C@]2(CCN(Cc3ccc(C4=CC[C@H](C(=O)N5CCC(Nc6cccc7c6n(C)c(=O)n7C6CCC(=O)NC6=O)CC5)CC4)c(F)c3)CC(C)(C)C(F)(F)F)CCOC(C)(C)C2)cc1 (stereo partly drawn) [CD2, 3-{4-[(1-{[(4R)-2′-Fluoro-4′-{[{2-[(4R)-4-(4-methoxyphenyl)-2,2-dimethyltetrahydro-2H-pyran-4-yl]ethyl}(3,3,3-trifluoro-2,2-dimethylpropyl)amino]methyl}-2,3,4,5-tetrahydro[biphenyl]-4-yl]carbonyl}piperidin-4-yl)amino]-3-methyl-2-oxo-2,3-dihydro-1H-benzimidazol-1-yl}piperidine-2,6-dione] | 0.007 | 0.033
4 | COc1ccc([C@]2(CCN(Cc3ccc(-c4cccc(CC(=O)NCCNc5ccc6c(c5)n(C)c(=O)n6C5CCC(=O)NC5=O)c4)cc3)CC(C)(C)C(F)(F)F)CCOC(C)(C)C2)cc1 (stereo partly drawn) [Example AA4, N-(2-{[1-(2,6-Dioxopiperidin-3-yl)-3-methyl-2-oxo-2,3-dihydro-1H-benzimidazol-5-yl]amino}ethyl)-2-(4′-{[{2-[(4R)-4-(4-methoxyphenyl)-2,2-dimethyltetrahydro-2H-pyran-4-yl]ethyl)(3,3,3-trifluoro-2,2-dimethylpropyl)amino]methyl}[biphenyl]-3-yl)acetamide] | 0.012 | 0.488
5 | COc1ccc(C2(CCN(Cc3ccc(OC4CCN(CC(=O)Nc5cccc6c5n(C)c(=O)n6C5CCC(=O)NC5=O)CC4)cc3)CC(C)(C)C(F)(F)F)CCC(F)(F)CC2)cc1 (stereo not shown) [Example AB6, 2-[4-(4-{[{2-[4,4-Difluoro-1-(4-methoxyphenyl)cyclohexyl]ethyl}(3,3,3-trifluoro-2,2-dimethylpropyl)amino]methyl}phenoxy)piperidin-1-yl]-N-[1-(2,6-dioxopiperidin-3-yl)-3-methyl-2-oxo-2,3-dihydro-1H-benzimidazol-4-yl]acetamide] | 0.029 | 0.165
6 | COc1ccc(C2(CCN(Cc3ccc(OC4CCN(CC(=O)Nc5cccc6c5n(C)c(=O)n6C5CCC(=O)NC5=O)CC4)cc3)CC(C)(C)C(F)(F)F)CCOCC2)cc1 (stereo not shown) [Example AC6, N-[1-(2,6-Dioxopiperidin-3-yl)-3-methyl-2-oxo-2,3-dihydro-1H-benzimidazol-4-yl]-2-[4-(4-{[{2-[4-(4-methoxyphenyl)tetrahydro-2H-pyran-4-yl]ethyl}(3,3,3-trifluoro-2,2-dimethylpropyl)amino]methyl}phenoxy)piperidin-1-yl]acetamide] | 0.026 | 0.073
7 | COc1ccc([C@]2(CCN(Cc3ccc(OC4CC5(CCN(CC(=O)Nc6ccc7c(c6)n(C)c(=O)n7C6CCC(=O)NC6=O)CC5)C4)cc3)CC(C)(C)C(F)(F)F)CCOC(C)(C)C2)cc1 (stereo partly drawn) [Example AE1, N-[1-(2,6-Dioxopiperidin-3-yl)-3-methyl-2-oxo-2,3-dihydro-1H-benzimidazol-5-yl]-2-[2-(4-{[{2-[(4R)-4-(4-methoxyphenyl)-2,2-dimethyltetrahydro-2H-pyran-4-yl]ethyl}(3,3,3-trifluoro-2,2-dimethylpropyl)amino]methyl}phenoxy)-7-azaspiro[3.5]nonan-7-yl]acetamide] | 0.0085 | 0.04
8 | COc1ccc([C@]2(CCN(Cc3ccc(OC4CC5(CCN(CC(=O)Nc6ccc7c(c6)CN(C6CCC(=O)NC6=O)C7=O)CC5)C4)cc3)CC(C)(C)C(F)(F)F)CCOC(C)(C)C2)cc1 (stereo partly drawn) [Example AF1, N-[2-(2,6-Dioxopiperidin-3-yl)-1-oxo-2,3-dihydro-1H-isoindol-5-yl]-2-[2-(4-{[{2-[(4R)-4-(4-methoxyphenyl)-2,2-dimethyltetrahydro-2H-pyran-4-yl]ethyl}(3,3,3-trifluoro-2,2-dimethylpropyl)amino]methyl}phenoxy)-7-azaspiro[3.5]nonan-7-yl]acetamide] | 0.0069 | 0.121
9 | COc1ccc([C@]2(CCN(Cc3ccc(C4=CCC(CN5CCN(C(=O)c6ccc7c(c6)CN(C6CCC(=O)NC6=O)C7=O)CC5)CC4)cc3)CC(C)(C)C(F)(F)F)CCOC(C)(C)C2)cc1 (stereo partly drawn) [Example AG7, 3-[5-({4-[(4′-{[{2-[(4R)-4-(4-Methoxyphenyl)-2,2-dimethyltetrahydro-2H-pyran-4-yl]ethyl}(3,3,3-trifluoro-2,2-dimethylpropyl)amino]methyl}-2,3,4,5-tetrahydro[biphenyl]-4-yl)methyl]piperazin-1-yl}carbonyl)-1-oxo-1,3-dihydro-2H-isoindol-2-yl]piperidine-2,6-dione] | 0.0087 | 0.147

Results, then the compound that gave them:

Row | DC50 [1] [µM] | GI50 [2] [µM] | Compound
10 | 0.0043 | 0.07 | COc1ccc([C@]2(CCN(Cc3ccc(C4=CC[C@H](CN5CCN(C(=O)c6ccc7c8c6NCCn8c(=O)n7[C@H]6CCC(=O)NC6=O)CC5)CC4)cc3)CC(C)(C)C(F)(F)F)CCOC(C)(C)C2)cc1 [CE1, (3S)-3-{7-[(4-{[(4R)-4′-{[{2-[(4R)-4-(4-Methoxyphenyl)-2,2-dimethyltetrahydro-2H-pyran-4-yl]ethyl)(3,3,3-trifluoro-2,2-dimethylpropyl)amino]methyl}-2,3,4,5-tetrahydro[biphenyl]-4-yl]methyl}piperazin-1-yl)carbonyl]-2-oxo-5,6-dihydro-4H-imidazo[1,5,4-de]quinoxalin-1(2H)-yl}piperidine-2,6-dione]
11 | 0.0051 | 0.084 | COc1ccc([C@]2(CCN(Cc3ccc(C4=CC[C@H](CN5CCN(C(=O)c6ccc7c8c6NCCn8c(=O)n7[C@@H]6CCC(=O)NC6=O)CC5)CC4)cc3)CC(C)(C)C(F)(F)F)CCOC(C)(C)C2)cc1 [CF1, (3R)-3-{7-[(4-{[(4R)-4′-{[{2-[(4R)-4-(4-Methoxyphenyl)-2,2-dimethyltetrahydro-2H-pyran-4-yl]ethyl)(3,3,3-trifluoro-2,2-dimethylpropyl)amino]methyl}-2,3,4,5-tetrahydro[biphenyl]-4-yl]methyl}piperazin-1-yl)carbonyl]-2-oxo-5,6-dihydro-4H-imidazo[1,5,4-de]quinoxalin-1(2H)-yl}piperidine-2,6-dione]
12 | 0.0069 | 0.047 | COc1ccc([C@]2(CCN(Cc3ccc(OC4CC5(CCN(CC(=O)Nc6cccc7c6n(C)c(=O)n7C6CCC(=O)NC6=O)CC5)C4)cc3)CC(C)(C)C(F)(F)F)CCOC(C)(C)C2)cc1 (stereo partly drawn) [Example AD1, N-[1-(2,6-Dioxopiperidin-3-yl)-3-methyl-2-oxo-2,3-dihydro-1H-benzimidazol-4-yl]-2-[2-(4-{[{2-[(4R)-4-(4-methoxyphenyl)-2,2-dimethyltetrahydro-2H-pyran-4-yl]ethyl}(3,3,3-trifluoro-2,2-dimethylpropyl)amino]methyl}phenoxy)-7-azaspiro[3.5]nonan-7-yl]acetamide]
13 | 0.0057 | 0.123 | COc1ccc([C@]2(CCN(Cc3ccc(C4=CCC(CN5CCN(C(=O)c6cccc7c6n(C)c(=O)n7C6CCC(=O)NC6=O)CC5)CC4)cc3)CC(C)(C)C(F)(F)F)CCOC(C)(C)C2)cc1 (stereo partly drawn) [Example AH4, 3-[4-({4-[(4′-{[{2-[(4R)-4-(4-Methoxyphenyl)-2,2-dimethyltetrahydro-2H-pyran-4-yl]ethyl}(3,3,3-trifluoro-2,2-dimethylpropyl)amino]methyl}-2,3,4,5-tetrahydro[biphenyl]-4-yl)methyl]piperazin-1-yl}carbonyl)-3-methyl-2-oxo-2,3-dihydro-1H-benzimidazol-1-yl]piperidine-2,6-dione]
14 | 0.0062 | 0.09 | COc1ccc([C@]2(CCN(Cc3ccc([C@H]4CC[C@@H](CN5CCN(C(=O)c6ccc7c(c6)n(C)c(=O)n7C6CCC(=O)NC6=O)CC5)CC4)cc3)CC(C)(C)C(F)(F)F)CCOC(C)(C)C2)cc1 (stereo partly drawn) [Example AI11, 3-{5-[(4-{[Cis-4-(4-{[{2-[(4R)-4-(4-methoxyphenyl)-2,2-dimethyltetrahydro-2H-pyran-4-yl]ethyl}(3,3,3-trifluoro-2,2-dimethylpropyl)amino]methyl}phenyl)cyclohexyl]methyl}piperazin-1-yl)carbonyl]-3-methyl-2-oxo-2,3-dihydro-1H-benzimidazol-1-yl}piperidine-2,6-dione]
